Read-outs that look alike come from different tables or passages of the source. Peptide text beside a SMILES is read from it.

These results are taken from patent US4585757A, “Hypotensive active peptides” (Texas Tech University Health Sciences Center, priority 1984, dated 1986).

Assay [1] concerns rat tail artery helical strip. Also noted: dose or concentration left out as unconfirmed. The conditions noted are these: strips contracted with arginine vasopressin.
Experimental: Male and female Sprague-Dawley rats were anesthetized with pentobarbital (50 mg/kg) before removal of the tail artery. Upon isolation the artery was placed in ice cold Krebs-Hensleit solution (KHS) which was oxygenated with 95% O2, 5% CO2. The vessels were cut helically and strips of approximately 1.5 cm were secured in a Sawyer-Bartleston chamber containing KHS. The development of force of the helical strips was measured with a Grass FT.03 force displacement transducer and recorded on a Grass Model 79D polygraph. Isolated tail artery helical strips were equilibrated for one hour prior to addition of any peptide. In all cases, the strips were first contracted by adding arginine vasopressin (AVP), to the bath. The peptide being studied was then added to the bath and the degree of relaxation was determined.
For a further assay, the system named is Mongrel dogs. In words: dog blood pressure assay. It counts as in vivo. The conditions noted are these: dose 3 × 10^-9 moles/kg, mean of 4 replications.
For a further assay, the system named is Sprague-Dawley rats. In words: rat blood pressure assay. In kind it is in vivo. The conditions noted are these: anesthetized rat, mean of 4 replications. The protocol: The rat blood pressure assay was conducted as follows: Sprague-Dawley rats of both sexes, weighing between 100 and 200 grams, were anesthetized with sodium pentobarbital and the right carotid artery and jugular vein were cannulated with polyethylene tubing PE50. The hypotensive peptide was administered and blood pressure was recorded in the anesthetized rats as described above for dogs.

Experimental for Mongrel dogs: The dog blood pressure assay was conducted according to the following method:
Mongrel dogs of either sex weighing between 6-15 kg were anesthetized by intravenous injection of sodium pentobarbital (30 mg/kg). The femoral artery and vein were cannulated for the measurement of blood pressure and the injection of drugs, respectively. Arterial blood pressure was determined with a Statham pressure transducer and was recorded on a Grass polygraph. Mean arterial pressure (MAP) were calculated for the periods before and after each peptide injection. A tracheotomy was performed to insure a patient airway for spontaneous respiration.
Hypotensive screening studies involved injecting each dog with 0.1; 0.5; 1.0; and 2.0 ug/kg. The CIP as supplied by Peninsula Laboratories was in the lyophilyzed form. Prior to injection the CIP was dissolved in saline.

On to `N=C(N)NCCC[C@H](N)C(=O)O` [L Arg, L-arginine], for which the Tension change in assay [1] (dose of 100), in assay [1] (dose of 200) and in assay [1] (dose of 500) was 0 gm each time.
`O=C(O)[C@@H]1CCCN1` [L Pro, L-proline]: the Tension change in assay [1] (dose of 100), in assay [1] (dose of 200) and in assay [1] (dose of 500) was 0 gm in each case.
Regarding `NC(N)=NCCC[C@H](NC(=O)[C@H](Cc1ccccc1)NC(=O)[C@@H]1CCCN1C(=O)[C@H](CO)NC(=O)[C@H](Cc1ccccc1)NC(=O)CNC(=O)[C@@H]1CCCN1C(=O)[C@@H]1CCCN1C(=O)[C@@H](N)CCCN=C(N)N)C(=O)O` [Bradykinin] (H-RPPGFSPFR-OH), the “Maximum Decrease in Blood Pressure” value in the assay with Mongrel dogs is on record as 44 mmHg.
For “Thy-Pro-Arg-Lys [Contraceptive tetrapeptide]”, the “Blood Pressure Decrease” value in the assay on Sprague-Dawley rats (dose 100.0 ug/kg) amounted to 2 mmHg; in the assay with Sprague-Dawley rats (dose 200.0 ug/kg), 3 mmHg; with Sprague-Dawley rats (dose 500.0 ug/kg) it was 9 mmHg; with Sprague-Dawley rats (dose 1000.0 ug/kg) it was 13 mmHg; in the assay with Sprague-Dawley rats (dose 2000.0 ug/kg), 15 mmHg.
